According to PMC5488252, “Specificity Effects of Amino Acid Substitutions in Promiscuous Hydrolases: Context‐Dependence of Catalytic Residue Contributions to Local Fitness Landscapes in Nearby Sequence Space” (Chembiochem, 2017):
Structures can show the parent of a compound that is named as a salt.

Legend:
[1] = system: AkAS; type: biochemical; conditions: 30 °C
[2] = system: T1, SaAS; test: 4-nitrophenolate release at […] nm; type: biochemical; conditions: 30 °C; Bis-Tris propane or SID buffer
T1 construct: pASK-IBA5plus (Strep-tag), E. coli TOP10; source organism not spelt out in this text

SMILES | Km [1] [mM] | Km [2] [mM]
O=[N+]([O-])c1ccc(OP(=O)(O)O)cc1 [compound 1, phosphate monoester 1] | 17 | 
O=[N+]([O-])c1ccc(OS(=O)(=O)O)cc1 [compound 4, sulfate monoester 4] |  | 0.24
